Results published in publication PMC8120209, “Longitudinal evaluation of a novel BChE PET tracer as an early in vivo biomarker in the brain of a mouse model for Alzheimer disease” (Theranostics, 2021).

Biological target: T1, adrenergic receptor α1A (Homo sapiens, UniProt P35348)
T1 construct: gene ADRA1A
T1 sequence (P35348 1-466): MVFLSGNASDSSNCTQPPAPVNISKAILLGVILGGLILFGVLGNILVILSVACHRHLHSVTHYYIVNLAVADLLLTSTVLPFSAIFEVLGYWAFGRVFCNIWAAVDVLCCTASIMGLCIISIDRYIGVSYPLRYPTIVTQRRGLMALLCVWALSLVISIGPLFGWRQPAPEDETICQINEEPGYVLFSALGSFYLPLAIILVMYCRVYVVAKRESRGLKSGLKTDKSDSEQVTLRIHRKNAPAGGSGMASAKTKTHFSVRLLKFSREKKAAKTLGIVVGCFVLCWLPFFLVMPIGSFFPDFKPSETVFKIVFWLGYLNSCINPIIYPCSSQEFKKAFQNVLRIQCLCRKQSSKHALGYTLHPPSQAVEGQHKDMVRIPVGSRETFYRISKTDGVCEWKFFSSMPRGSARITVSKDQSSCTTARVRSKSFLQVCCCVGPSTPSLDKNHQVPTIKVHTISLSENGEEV
Assay: SafetyScreen44 panel (Eurofins), single concentration […]
Details: read-out: % inhibition at 10 μM

For `COCCN(CC1CCCN(Cc2ccccc2)C1)S(=O)(=O)c1ccc2ccccc2c1` (racemic) [compound 4, (±)N-((1-benzylpiperidin-3-yl)methyl)-N-(2-methoxyethyl)naphthalene-2-sulfonamide], the inhibition at 10 µM was 71.7%.
